biological target: benzodiazepine receptors; assay: Affinity for benzodiazepine receptors: inhibition of specific binding of 3H-labelled flunitrazepam in rat rear brain membranes; parameters: species or system rats; settings: inhibition of 50% of specific binding of 0.6×10^-9 mol 3H-flunitrazepam; membranes from rear portion of rat brain
Protocol: The affinity of the active ingredients for benzodiazepine receptors was measured using a radioactively labelled (^3 H) compound flunitrazepam in a modified version of the method of Squires et al [Nature, (1977), Vol. 266, p. 732]. The values given in Table 2 below are the concentration (mol×10^-9) of the compound under test which inhibited 50% of the specific binding of 0.6×10^-9 mol of ^3 H-labelled flunitrazepam in preparations of membrances from the rear portion of the brain in rats (IC50 values).

Point of comparison: `O=C(c1cn2c(n1)sc1ccccc12)C1CC1` [Example 2], IC50 20 nM. Against it:
- O=C(c1cn2c3c(sc2n1)CCCC3)C1CC1 [Example 6, (5,6,7,8-tetrahydro-imidazo[2,1-b]benzothiazol-2-yl) cyclopropyl-methanone] — 4-fold higher, 79 nM
- CC(C)Oc1ccc2c(c1)sc1nc(C(=O)C3CC3)cn12 [Example 7, (7-isopropoxy-imidazo[2,1-b]benzothiazol-2-yl) cyclopropyl-methanone] — 3.2-fold lower, 6.3 nM
- COc1ccc2c(c1)sc1nc(C(=O)C3CC3)cn12 [Example 1, (7-Methoxy-imidazo[2,1-b]benzothiazol-2-yl)-cyclopropylmethanone] — 8-fold lower, 2.5 nM
- O=C(c1cn2c(n1)sc1cc3c(cc12)OCO3)C1CC1 [Example 5] — 7.9-fold higher, 158 nM
- Cc1cc2sc3nc(C(=O)C4CC4)cn3c2cc1C [Example 8] — 3-fold higher, 60 nM
- O=C(c1cn2c(n1)sc1cc(OCc3ccccc3)ccc12)C1CC1 [Example 4, (7-benzyloxy-imidazo[2,1-b]-benzothiazol-2-yl) cyclopropyl-methanone] — 6.2-fold lower, 3.2 nM

From patent US4895863A, “Novel imidazo[2,1-B]benzothiazoles” (Roussel Uclaf, priority 1987, dated 1990)
